Patent US20260193295A1, “CILAGICIN COMPOUNDS AND METHODS OF USE THEREOF” (priority 2022, published 2026)
pKd: −log10 of the molar value. Like-named read-outs stand apart in the source and are kept apart here. Positions of bridges follow the written chain, without caps; N, C: chain ends. Non-standard residues stand in square brackets, D forms with d. Residues, ends and D or L forms follow the SMILES beside them. *: point of attachment. Myristoyl = CCCCCCCCCCCCCC(=O)*; dDab = NCC[C@@H](N)C(=O)O; Dab = NCC[C@H](N)C(=O)O

How the values were obtained:
S. aureus USA300 [1] = test: Resistance studies (daily serial passage at sub-MIC); type: cell-based, Staphylococcus aureus
Description: A single colony of S. aureus USA300 was inoculated in 5 mL LB broth and grown overnight at 37° C. with continuous shaking (200 rpm). The overnight culture was then diluted 1:5,000 into fresh LB. 50 μL aliquots of dilute cells were transferred into individual wells of 96-well plates containing 50 μL of serially diluted cilagicin, amphomycin (AG Scientific, USA) or bacitracin (Sigma, USA). Plates were statically incubated at 37° C. After 24 hours, the MIC was recorded. […] The MIC was determined as described above. This process was repeated daily for 25 days. For bacitracin, the LB medium was supplemented with 50 μg/mL ZnCl2. For amphomycin, the medium was supplemented with 100 μg/mL CaCl2-2H2O. Experiments were performed three independent times (n=3).

S. aureus USA300 [2] = type: cell-based, Staphylococcus aureus
Description: The effect of lipid II biosynthesis intermediates on cilagicin's antibacterial activity was evaluated using S. aureus USA300 and the general MIC assay methods described above with the following changes. Potential antagonizing compounds were mixed with cilagicin at a constant molar ratio of 5. Cilagicin mixed with solvent alone was used as a control. Premixed solutions were dried in vacuo for 2 hours to completely remove all organic solvent. They were then resuspended in LB broth and mixed with S. aureus. All assays were run in duplicate (n=2) and repeated two independent times (n=2).

[3] = mice, intraperitoneal (IP) injection
[4] = Animal infection model (cilagicin, not further described); type: in vivo
[5] = Isothermal titration calorimetry (ITC); type: binding; conditions: 25° C., DOPC vesicles
Description: Isothermal titration calorimetry (ITC) The interaction of cilagicin and undecaprenyl phosphate (C55-P, Larodan, SE) or undecaprenyl diphosphate (C55-PP, Larodan, SE) was measured using ITC. Briefly, 0.1 μm of large unilamellar vesicles (LUVs) was prepared by mixing 1,2-dioleoyl-sn-glycero-3-phosphocholine (DOPC, Avanti, AL) and 0.1% of either C55-P or C55-PP in chloroform/methanol (2:1). The resulting lipid suspension was dried under argon gas for 2 hours and then rehydrated in 10 mM HEPES buffer (pH 7.5, 100 mM NaCl). The dried sample was filtered 10 times through an Avanti mini extruder (Avanti, AL) using a 0.1 μM filter membrane. ITC binding experiments were performed using a MicroCal Auto-iTC200. A vesicle suspension of 0.27 μM C55-P or 0.25 μM C55-PP and 2.5 mM DOPC in HEPES buffer was titrated into a freshly made solution of 0.1 mM cilagicin in the same buffer. The titration was conducted under the following conditions: temperature 25° C., reference power 5 uCals-1, syringe-stirring speed 750 rpm, number of injections 19, injection volume 2 μl, and time between injections 150 s. The calorimetric data obtained from the Auto-iTC200 instrument was analyzed using AFFINImeter software. Thermodynamic parameters (enthalpy (AH), entropy (AS), and the equilibrium binding constant (KD)) were calculated using a one-binding site model.

S. aureus USA300 [6] = test: Membrane depolarization assay (DiSC3(5)); type: cell-based, Staphylococcus aureus; conditions: S. aureus exposed to 8-fold MIC
Description: The effect of cilagicin on membrane depolarization was analyzed using DiSC3(5) dye (Thermo Fisher, USA). Overnight cultures of S. aureus USA300 were harvested and resuspended in PBS (OD600 nm=0.37). Cell suspension (1 mL) and 10 μL of 4 μM DisC3(5) were pre-mixed and incubated in the dark at room temperature for 15 minutes. 50 μL of this mixture was then added to each well of black 96-well flat bottom black microtiter plates. The initial fluorescence intensity of each well was recorded using an infinite 200 PRO (Excitation/Emission=620/670 nm) at 9 second intervals for 15 minutes. 50 μL of a 1 μM solution of each test compound was then added to each well. Gramicidin (30 μM) and melittin (1 μM) were used as positive controls. DMSO was used as the vehicle control. The fluorescence intensity of each well was then monitored at 9 second intervals for another 15 minutes and plotted by Prism 9.0. All assays were performed in biological triplicate (n=3).

S. aureus USA300 [7] = test: Time-dependent killing assay; type: cell-based, Staphylococcus aureus; conditions: S. aureus USA300, 10x the MIC
Description: An overnight culture of S. aureus USA300 was diluted 1:10,000 in 50 mL fresh LB and incubated at 37° C. with aeration at 220 rpm for 2 hours. Bacteria (3 mL) were challenged with 10× the MIC of each antibiotic (10 μg/mL cilagicin, 10 μg/mL vancomycin). After 1.25, 4, 8, 16 and 24 hours 200 μL aliquots of cells were collected, centrifuged at 10,000×g for 1 minute and then resuspended in 200 μL of sterile PBS (pH 7.4). 50 μL aliquots of 10-fold serial dilutions were plated on LB agar plates. After overnight growth at 37° C., colonies were counted. Experiments were performed three independent times (n=3).

S. aureus USA300 [8] = test: Cell lysis assay (SYTOX green); type: cell-based, Staphylococcus aureus; conditions: S. aureus exposed to 8-fold MIC
Description: Cell lytic activity of cilagicin was evaluated using SYTOX green nucleic acid stain (Thermo Fisher, USA). Gramicidin and DMSO were used as positive and negative controls, respectively. S. aureus USA300 was grown overnight at 37° C. with shaking (200 rpm) and then diluted in fresh LB broth to an OD600nm of 0.35. 900 μL of this S. aureus USA300 suspension was mixed with 100 μL of SYTOX (17 μM in DMSO). The mixture was incubated at room temperature for 5 minutes, and then transferred into a 384-well flat bottom black microtiter plate (30 μL/well). The initial fluorescence intensity of each well was recorded using an infinite 200 PRO (Excitation/Emission=488/523 nm) at 9 second intervals for 5 minutes. […] The fluorescence intensity of each well was then continually monitored at 9 second intervals for 25 minutes and plotted by Prism 9.0. All assays were performed in biological triplicates (n=3).

SMILES: CCCCCCCCCCCCCC(=O)N[C@H](CO)C(=O)N[C@@H]1C(=O)N[C@H](CCN)C(=O)N[C@@H](CC(=O)O)C(=O)NCC(=O)N[C@H](CC(N)=O)C(=O)N[C@H](CC(=O)O)C(=O)NCC(=O)N[C@@H](Cc2ccc(O)cc2)C(=O)N[C@@H](C(C)C)C(=O)N[C@@H](CCN)C(=O)N[C@@H](Cc2ccccc2)C(=O)O[C@@H]1C [Cilagicin] (Myristoyl-[dS]T[dDab]DG[dN][dD]GYV[Dab]F; ester 2-C)
- maximum change in MIC (increase) (S. aureus USA300 [1]; S. aureus USA300, after 25 days of constant exposure): 1 fold
- cross resistance of bacitracin resistant and amphomycin resistant mutants (S. aureus USA300 [1]; S. aureus mutants raised by serial passage): neither the highly bacitracin resistant mutants nor the highly amphomycin resistant mutants that were generated showed cross resistance
- molar ratio at which C55-P completely inhibited the bioactivity (S. aureus USA300 [2]; S. aureus USA300, C55-P): ~ 1.25
- molar ratio at which C55-PP gave complete inhibition (S. aureus USA300 [2]; S. aureus USA300, C55-PP): ~ 2.5
- MIC in the presence of C55-P (S. aureus USA300 [2]; USA300): ≥ 64 µg/mL
- plasma bioavailability [3]: high plasma bioavailability
- bacterial burden [4]: did not reduce bacterial burden
- pKd ([5]; read-out: dissociation constant (Kd), C55P): 7.66
- pKd ([5]; read-out: dissociation constant (Kd), C55PP): 7.25
- membrane depolarization (DiSC3(5) fluorescence) (S. aureus USA300 [6]): No response was detected
- time-dependent killing curve analysis, kind of action (S. aureus USA300 [7]): bactericidal
- reduction of the number of viable bacteria (S. aureus USA300 [7]; after 4 hours): more than four orders of magnitude
- cell lytic activity (SYTOX fluorescence) (S. aureus USA300 [8]): No response was detected
